Source: publication doi:10.1101/2022.10.18.512764v1 (bioRxiv, 2022)

How the values were obtained:
HeLa [1] = experiment: TMR-TAT endocytic uptake measured by flow cytometry; format: cell-based
HeLa [2] = experiment: Quantification of TMR-TAT puncta by 100x fluorescence microscopy; format: cell-based; settings: TMR-TAT 5 µM, 1 h, 100x deconvoluted images, individual puncta

## RKKQRRRG [TMR-TAT]
HeLa [1]; HeLa cultured 2, 10, 25 days, TMR-TAT 5 µM, 1 h, Fig S1
  Effect of cell aging on endocytosis: no effect
HeLa [1]; HeLa grown 24 h, TMR-TAT 5 µM 1 h in L-15, Fig 3B
  Difference in uptake between growth in LG-DMEM and HG-DMEM, incubation in L-15: not detectable
HeLa [1]; HeLa, TMR-TAT 5 µM in L-15, 5-60 min
  Rate of TMR-TAT uptake at 25°C as percentage of that at 37°C: approximately 50%
HeLa [1]; HeLa, TMR-TAT 5 µM in L-15, 60 min incubation time point, Fig 4
  Uptake less at 25°C than at 37°C, fold: 1.9 fold
HeLa [1]; HeLa, TMR-TAT 5 µM, 1 h, DMEM 0 vs 25 mM glucose, Fig 3C
  Effect of removing glucose from DMEM during incubation on uptake: reduction
HeLa [1]; HeLa, TMR-TAT 5 µM, 1 h, L15 25 vs 0 mM glucose (5 mM galactose), Fig 3C
  Effect of adding glucose to L15 on uptake: increased
HeLa [1]; HeLa, TMR-TAT 5 µM, 1 h, possibly because of unwashed BSA, Fig S4
  Effect of 0 wash on uptake: uptake is inhibited
HeLa [1]; HeLa, TMR-TAT 5 µM, 1 h, discussion
  Difference between MUP and HUP, fold MFI change: 2.3 fold
HeLa [1]; HeLa, TMR-TAT 5 µM, 1 h, using a median of 0.8 × 10^3 for untreated cells
  Fold increase in uptake, HUP compared to LUP: 13 fold
HeLa [1]; HeLa, TMR-TAT 5 µM, 1 h incubation, Fig 3A
  Endocytosis higher in DMEM (serum free) than in L-15, factor: 1.4 fold
HeLa [2]
  Average pixel intensity of puncta, HUP versus MUP: not statistically different
